Measured values published in ChEMBL document CHEMBL1140899, “Computational studies of epidermal growth factor receptor: docking reliability, three-dimensional quantitative structure-activity relationship analysis, and virtual screening studies” (J Med Chem, 2009).
Calls of active or inactive are those of the source. The rule behind the calls is not given here.

Experiments:
[1] = target: T1, Epidermal growth factor receptor (Homo sapiens, UniProt P00533)
[2] = target: T1, Epidermal growth factor receptor; conditions: at 100 µM
[3] = target: T1, Epidermal growth factor receptor; experiment: Inhibition of human recombinant EGFR up to 100 uM
[4] = target: T1, Epidermal growth factor receptor; experiment: Inhibition of human recombinant EGFR at 100 uM

T1 sequence (P00533 whole entry): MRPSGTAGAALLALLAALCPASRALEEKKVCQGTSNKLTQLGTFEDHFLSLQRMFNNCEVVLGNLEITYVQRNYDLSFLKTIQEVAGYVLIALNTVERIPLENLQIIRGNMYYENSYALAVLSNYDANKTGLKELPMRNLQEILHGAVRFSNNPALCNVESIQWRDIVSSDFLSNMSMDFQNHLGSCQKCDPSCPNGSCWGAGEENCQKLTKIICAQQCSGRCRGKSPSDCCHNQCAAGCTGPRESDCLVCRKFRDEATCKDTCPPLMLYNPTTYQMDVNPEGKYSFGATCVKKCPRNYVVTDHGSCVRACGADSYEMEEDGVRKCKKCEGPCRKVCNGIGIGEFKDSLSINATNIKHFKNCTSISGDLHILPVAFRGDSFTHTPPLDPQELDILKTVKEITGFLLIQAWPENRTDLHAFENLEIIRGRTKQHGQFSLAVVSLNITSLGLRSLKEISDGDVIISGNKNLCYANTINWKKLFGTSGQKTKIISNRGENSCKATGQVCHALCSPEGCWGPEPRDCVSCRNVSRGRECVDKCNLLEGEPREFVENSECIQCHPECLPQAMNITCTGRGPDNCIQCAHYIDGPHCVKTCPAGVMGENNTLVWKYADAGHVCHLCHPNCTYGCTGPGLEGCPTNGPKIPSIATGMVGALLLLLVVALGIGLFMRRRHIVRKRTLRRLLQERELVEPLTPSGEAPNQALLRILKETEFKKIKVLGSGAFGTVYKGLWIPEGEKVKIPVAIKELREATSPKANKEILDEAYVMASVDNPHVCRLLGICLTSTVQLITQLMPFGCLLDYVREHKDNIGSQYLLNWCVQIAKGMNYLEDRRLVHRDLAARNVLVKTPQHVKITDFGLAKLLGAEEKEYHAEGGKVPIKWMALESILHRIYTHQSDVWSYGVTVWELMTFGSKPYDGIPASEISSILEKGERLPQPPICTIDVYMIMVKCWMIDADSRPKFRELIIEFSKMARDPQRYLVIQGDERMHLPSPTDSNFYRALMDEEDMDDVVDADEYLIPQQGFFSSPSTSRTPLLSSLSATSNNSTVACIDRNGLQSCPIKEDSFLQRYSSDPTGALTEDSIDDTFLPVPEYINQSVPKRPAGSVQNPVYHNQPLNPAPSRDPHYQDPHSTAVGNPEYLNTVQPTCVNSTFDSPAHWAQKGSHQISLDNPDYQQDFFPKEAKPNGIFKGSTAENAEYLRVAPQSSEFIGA

IC50 [1] | SMILES | further results
0.55 nM | C/C=C/C(=O)Cc1ccc2ncnc(Nc3cccc(Br)c3)c2c1 | 
0.724 nM | C=CC(=O)NC1=NC=C2N=CN=C(Nc3ccc(F)c(Br)c3)C21 (stereo unspecified) | 
4.6 nM | COc1cc2ncnc(Nc3cccc(C)c3)c2cc1OC | inhibition [2]: 100%
1.2 nM | C=C(C)C(=O)Cc1ccc2ncnc(Nc3cccc(Br)c3)c2c1 | 
0.0891 nM | CN(C)c1cc2ncnc(Nc3cccc(Br)c3)c2cn1 | 
 | CN1CCN(c2ccccc2/C=C2/C(=O)Nc3ccccc32)CC1 | inhibition [2]: 55%
< 1 nM | COc1cc2ncnc(Nc3ccc(F)c(Cl)c3)c2cc1CN(C(C)C)[C@@H](C)C(N)=O | 
0.759 nM | C=CC(=O)Nc1ccc2ncnc(Cc3ccc(F)c(Cl)c3)c2c1 | 
26.9 nM | C=CC(=O)Nc1ccc2ncnc(Cc3ccc(OCCN(C)C)c(Br)c3)c2c1 | 
0.692 nM | C=CC(=O)Nc1ccc2ncnc(Cc3ccc(F)c(Br)c3)c2c1 | 
10600 nM | COc1cc2nccc(Nc3ccc(F)c(Cl)c3)c2cc1NC(=O)/C=C/C(C)N1CCOCC1 (stereo unspecified) | 
7500 nM | C/C=C/C(=O)Nc1cc2c(Nc3ccc(F)c(Cl)c3)ccnc2cc1CC | 
10000 nM | N#Cc1cccc(NC(=O)Nc2ncnc3nn4ccccc4c23)c1 | 
1.58 nM | C=C(C)C(=O)Cc1cc2c(Nc3cccc(Br)c3)ncnc2cn1 | 
0.692 nM | O=C(/C=C\Cl)Cc1cc2c(Nc3cccc(Br)c3)ncnc2cn1 | 
10300 nM | CCOc1cc2nccc(Nc3cccc(Br)c3)c2cc1NC(=O)/C=C/CN1CCOCC1 | 
0.977 nM | C=CC(=O)Nc1nc2c(Cc3ccc(F)c(Cl)c3)ncnc2cc1OCCOC | 
1.7 nM | C=CC(=O)Nc1cc2c(Cc3ccc(F)c(Cl)c3)ncnc2cc1OCCOCCCCO | 
1.2 nM | C=CC(=O)Nc1cc2ncnc(Nc3ccc(F)c(Br)c3)c2[nH]1 | 
 | FC(F)(F)Oc1ccc(Nc2ccnc3cc(Cl)ccc23)cc1 | Activity [3]: inactive
5390 nM | COc1cc(NC(=O)/C=C/CN2CCOCC2)cc2c(Nc3cccc(Br)c3)ccnc12 | 
 | O=c1[nH]nc2n1-c1ccccc1SC2 | inhibition [2]: 48%
0.537 nM | C=CC(=O)Nc1cc2ncnc(Nc3cccc(Cl)c3)c2cn1 | 
0.912 nM | C=CC(=O)NC1=CC=C2N=CN=C(Nc3cccc(C(F)(F)F)c3)C21 (stereo unspecified) | 
 | O=c1[nH]nc(SCCS(=O)(=O)c2cccc(C(F)(F)F)c2)n1-c1ccc(OCc2ccccc2)cc1 | inhibition [2]: 53%
2.69 nM | CCOC(=O)/C=C/C(=O)Cc1ccc2ncnc(Nc3cccc(Br)c3)c2c1 | 

IC50 [1] | SMILES | further results
93.3 nM | O=S(=O)(CO)Nc1cc2c(Nc3cccc(Br)c3)ncnc2cn1 | 
20 nM | C=CC(=O)N(C)c1nc2c(Cc3ccc(F)c(Cl)c3)ncnc2cc1OCCCN1CCOCC1 | 
10000 nM | O=C(Nc1ccc(Br)cc1)Nc1ncnc2nn3ccccc3c12 | 
0.776 nM | C=CC(=O)NC1=NC=C2N=CN=C(Nc3ccc(F)c(Cl)c3)C21 (stereo unspecified) | 
5220 nM | COc1cc2nccc(Nc3ccc(F)c(Cl)c3)c2cc1NC(=O)/C=C/C(C)N(C)C (stereo unspecified) | 
0.708 nM | C=CC(=O)Nc1ccc2ncnc(Cc3cccc(Br)c3)c2c1 | 
10000 nM | O=C(Nc1ccc(F)cc1)Nc1ncnc2nn3ccccc3c12 | 
1.51 nM | C=CC(=O)Nc1cc2c(Cc3ccc(F)c(Cl)c3)ncnc2cc1OCCCN1CCOCC1 | 
5.13 nM | O=C(O)CN1Cc2cc3c(Nc4cccc(Br)c4)ncnc3cc21 | 
6 nM | COc1cc2ncnc(Nc3ccc(F)c(Cl)c3)c2cc1CN1CC[C@@H](C(N)=O)C1 | 
1.1 nM | CN(C)CCCNC(=O)/C=C/C(=O)Cc1cc2c(Nc3cccc(Br)c3)ncnc2cn1 | 
3.89 nM | C=CC(=O)Nc1cc2c(Cc3cccc(Br)c3)ncnc2cc1OCCCCN(C)C | 
40.7 nM | CN(C)CCN1Cc2cc3c(Nc4cccc(Br)c4)ncnc3cc21 | 
0.912 nM | C=CC(=O)Cc1cc2c(Nc3cccc(Br)c3)ncnc2cn1 | 
 | O=[N+]([O-])c1ccc(N2CCCC2)c2c(O)ncnc12 | inhibition [4]: 0%
1.58 nM | C=CC(=O)NC1=CC=C2N=CN=C(Nc3cccc(Cl)c3)C21 (stereo unspecified) | 
234 nM | CS(=O)(=O)CCN(CCCCOc1ccc2ncnc(Nc3ccc(OCc4ccccc4)cc3)c2c1)C(=O)C(F)(F)F | 
1.82 nM | C=CC(=O)Nc1cc2c(Cc3ccc(F)c(Br)c3)ncnc2cc1OCCCN1CCOCC1 | 
1.58 nM | OCC(O)CN1Cc2cc3c(Nc4cccc(Br)c4)ncnc3cc21 (stereo unspecified) | 
1.51 nM | CCOC(=O)/C=C/C(=O)Cc1cc2c(Nc3cccc(Br)c3)ncnc2cn1 | 
1.58 nM | C=C=CC(=O)Cc1ccc2ncnc(Nc3cccc(Br)c3)c2c1 | 
0.17 nM | C=CC(=O)C(C)c1cc2c(Nc3cccc(Br)c3)ncnc2cn1 (stereo unspecified) | 
0.776 nM | C=CC(=O)Nc1cc2c(Cc3cccc(Br)c3)ncnc2cc1SCCCN(CC)CC | 
 | CC1=NNC2OC(N)=C(C#N)C(c3ccc4c(c3)OCO4)C12 (stereo unspecified) | inhibition [2]: 44%
10000 nM | O=C(Nc1cccc(C(F)(F)F)c1)Nc1ncnc2nn3ccccc3c12 | 
0.724 nM | CCN(CC)CCCNC(=O)/C=C/C(=O)Cc1cc2c(Nc3cccc(Br)c3)ncnc2cn1 | 

IC50 [1] | SMILES | further results
8 nM | COc1cc2ncnc(Nc3ccc(F)c(Cl)c3)c2cc1CN(C)[C@@H](C)C(N)=O | 
0.447 nM | O=C(/C=C/CC(=O)Nc1ccc2ncnc(Nc3cccc(Br)c3)c2c1)Nc1ccc2c(Nc3cccc(Br)c3)ncnc2c1 | 
0.603 nM | O=C(O)CCNc1cc2ncnc(Nc3cccc(Br)c3)c2cn1 | 
0.676 nM | C/C=C/C(=O)Nc1ccc2c(Nc3cccc(Br)c3)ncnc2c1 | 
44.7 nM | C=CC(=O)Nc1ccc2ncnc(Cc3ccc(CN(C)C)c(Br)c3)c2c1 | 
 | COc1ccc([N+](=O)[O-])c2ncnc(O)c12 | inhibition [4]: 0%
 | Nc1ccc(Nc2ccc([N+](=O)[O-])c3ncnc(O)c23)cc1 | inhibition [4]: 0%
 | Cc1cccc(Nc2ccc([N+](=O)[O-])c3ncnc(O)c23)c1 | inhibition [4]: 0%
0.372 nM | O=C(O)/C=C/C(=O)Cc1ccc2ncnc(Nc3cccc(Br)c3)c2c1 | 
11100 nM | CCOC(=O)c1ccc(N2CCOCC2)c(NS(=O)(=O)c2cc(Br)c(Cl)s2)c1 | inhibition [2]: 80%
13600 nM | COc1cc2nccc(Nc3ccc(F)c(Cl)c3)c2cc1NC(=O)/C=C/CN1CCOCC1 | 
0.794 nM | CN1Cc2cc3c(Nc4cccc(Br)c4)ncnc3cc21 | 
10000 nM | O=C(Nc1cccc([N+](=O)[O-])c1)Nc1ncnc2nn3ccccc3c12 | 
2 nM | C=CC(=O)Nc1cc2c(Cc3cccc(C)c3)ncnc2cc1OCCCN1CCC(C)CC1 | 
1.45 nM | CC(C(=O)/C=C/C(=O)NCCCN(C)C)c1cc2c(Nc3cccc(Br)c3)ncnc2cn1 (stereo unspecified) | 
1.2 nM | CC(=O)/C=C/C(=O)Cc1ccc2ncnc(Nc3cccc(Br)c3)c2c1 | 
9 nM | COc1cc2ncnc(Nc3ccc(F)c(Cl)c3)c2cc1CN(C)[C@H](C)C(N)=O | 
10000 nM | Nc1ncnc2nn3ccccc3c12 | 
8.6 nM | CN(N)C/C=C/C(=O)Nc1cc2c(Nc3cccc(Br)c3)ccnc2cn1 | 
10000 nM | O=C(Nc1ccc(C(F)(F)F)cc1)Nc1ncnc2nn3ccccc3c12 | 
0.501 nM | C/C=C/C(=O)Cc1cc2c(Nc3cccc(Br)c3)ncnc2cn1 | 
0.251 nM | C=CC(=O)Nc1ccc2c(Nc3cccc(Br)c3)ncnc2c1 | 
6300 nM | FC(F)(F)c1ccc(-n2cnnc2SCc2nc(COc3c(Cl)cccc3Cl)no2)cc1 | inhibition [2]: 77%
10.1 nM | COC[C@H]1Oc2cc3ncnc(Nc4cccc(Cl)c4)c3cc2O[C@@H]1COC | 
0.955 nM | C=CC(=O)Nc1nc2c(Cc3ccc(F)c(Cl)c3)ncnc2cc1OC | 

SMILES | IC50 [1] | further results
O=C(/C=C/C(=O)NCCCn1ccnc1)Cc1cc2c(Nc3cccc(Br)c3)ncnc2cn1 | 0.562 nM | 
C=CC(=O)Nc1ccc2ncnc(Cc3cccc(C)c3)c2c1 | 0.417 nM | 
O=C(Cc1c[nH]c2cc3ncnc(Nc4cccc(Br)c4)c3cc12)N1CCOCC1 | 4.79 nM | 
C=CC(=O)NC1=NC=C2N=CN=C(Nc3cccc(C)c3)C21 (stereo unspecified) | 0.479 nM | 
C=CC(=O)Nc1cc2ncnc(Nc3cccc(Br)c3)c2[nH]1 | 1.1 nM | 
O=C(CCCN1Cc2cc3c(Nc4cccc(Br)c4)ncnc3cc21)N1CCOCC1 | 8.71 nM | 
C=CC(=O)C(CCCN1CCOCC1)c1ccc2ncnc(Nc3cccc(Br)c3)c2c1 (stereo unspecified) | 3.31 nM | 
C=CC(=O)Nc1nc2c(Cc3ccc(F)c(Cl)c3)ncnc2cc1CCCCN1CCOCC1 | 2.69 nM | 
O=C(CCn1ncc2cc3c(Nc4cccc(Br)c4)ncnc3cc21)N1CCOCC1 | 3.72 nM | 
C=CC(=O)C(CCCN1CCOCC1)c1cc2c(Nc3cccc(Br)c3)ncnc2cn1 (stereo unspecified) | 2.69 nM | 
Brc1cccc(Nc2ncnc3cc4c(cc23)CN4)c1 | 0.437 nM | 
COc1cc2ncnc(Nc3ccc(F)c(Cl)c3)c2cc1CNC(=O)[C@H]1CCCCN1C | 8 nM | 
C=CC(=O)Nc1cc2c(Cc3cccc(C)c3)ncnc2cc1OCCCN1CCOCC1 | 1.51 nM | 
C=CC(=O)NC1=CC=C2N=CN=C(Nc3ccc(Oc4ccccc4)cc3)C21 (stereo unspecified) | 5.75 nM | 
C=CC(=O)Nc1cc2c(Cc3cccc(Br)c3)ncnc2cc1OCCCN1CCC(C)CC1 | 1.7 nM | 
C=CC(=O)Nc1nc2c(Cc3ccc(F)c(Cl)c3)ncnc2cc1/C=C/CCN1CCOCC1 | 0.158 nM | 
C=CC(=O)NC1=CC=C2N=CN=C(Nc3cccc(C)c3)C21 (stereo unspecified) | 0.417 nM | 
C=CC(=O)Nc1cc2c(Cc3cccc(Br)c3)ncnc2cc1OCCCn1ccnc1 | 3.02 nM | 
C=CC(=O)NC1=CC=C2N=CN=C(Nc3ccc(OCc4ccccc4)cc3)C21 (stereo unspecified) | 3.63 nM | 
C=CC(=O)Nc1nc2c(Cc3ccc(F)c(Cl)c3)ncnc2cc1OCCCN1CCC(C)CC1 | 6.61 nM | 
C=CC(=O)Nc1ccc2ncnc(Cc3ccc(F)c(Cl)c3)c2n1 | 0.759 nM | 
